For twelve compounds, IC50 results are on record in patent US20240150290A1, “HETEROCYCLIC P2Y14 RECEPTOR ANTAGONISTS” (priority 2021, published 2024).

The first experiment has as its target T1, hP2Y14R (Homo sapiens, UniProt Q15391).
T1 construct: expressed in transfected cells; host or cells: CHO cells
T1 sequence (Q15391 1-338): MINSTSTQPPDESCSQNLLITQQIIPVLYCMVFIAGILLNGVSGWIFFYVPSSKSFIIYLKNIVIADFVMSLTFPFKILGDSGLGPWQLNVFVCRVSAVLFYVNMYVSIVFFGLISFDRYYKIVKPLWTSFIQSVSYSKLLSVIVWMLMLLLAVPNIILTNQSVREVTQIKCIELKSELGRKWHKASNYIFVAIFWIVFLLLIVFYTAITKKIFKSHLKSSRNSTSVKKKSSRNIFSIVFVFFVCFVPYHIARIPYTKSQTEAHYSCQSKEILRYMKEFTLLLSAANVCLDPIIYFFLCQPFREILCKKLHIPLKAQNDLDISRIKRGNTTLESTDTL
Briefly: Inhibition of fluorescent antagonist binding in whole hP2Y14R-expressing CHO cells (flow cytometry). The conditions noted are these: Example 5 table; whole cell fluorescent binding assay; read-out: IC50.
In general, IC50 refers to the concentration at which inhibition is half-maximal. Regarding `O=C(O)c1cc(-c2ccc(C3CCCNCC3)cc2)c2ccc(-c3ccc(C(F)(F)F)cc3)cc2c1` (stereo not drawn) [Compound 426, 4-(4-(Azepan-4-yl)phenyl)-7-(4-(trifluoromethyl)phenyl)-2-naphthoic acid], the IC50 came out at 0.00958 ± 0.00514 µM.
Regarding “4-(4-(6-Methoxy-2-azaspiro[3.3]heptan-6-yl)phenyl)-7-(4-(trifluoromethyl)phenyl)-2-naphthoic acid and 4-(4-(6-(methoxy-d3)-2-azaspiro[3.3]heptan-6-yl)phenyl)-7-(4-(trifluoromethyl)phenyl)-2-naphthoic acid [Compound 409]”, the IC50 was found to be 0.0465 ± 0.01 µM.
As for `O=C(O)c1cc(-c2ccc(C3(O)CCCNCCC3)cc2)c2ccc(-c3ccc(C(F)(F)F)cc3)cc2c1` [Compound 430, 4-(4-(5-hydroxyazocan-5-yl)phenyl)-7-(4-(trifluoromethyl)phenyl)-2-naphthoic acid], the IC50 came out at 1.78 ± 0.44 µM.
“Mixture of 4-(4-(2,3,6,7-Tetrahydro-1H-azepin-4-yl)phenyl)-7-(4-(trifluoromethyl)phenyl)-2-naphthoic acid and 4-(4-(2,5,6,7-tetrahydro-1H-azepin-4-yl)phenyl)-7-(4-(trifluoromethyl)phenyl)-2-naphthoic acid [Compound 427]”: the half-inhibitory concentration (IC50) was found to be 0.0119 ± 0.0036 µM.

Still in this experiment, the particulars now being: Table 1; fluorescent antagonist 2, hP2Y14R-CHO cells, 3-4 determinations; read-out: IC50, hP2Y14R (μM, mean ± SEM).
`CC(=O)Nc1ccc(-c2cc(C(=O)O)cc(-n3cc(-c4ccc(C(F)(F)F)cc4)nn3)c2)cc1` [Compound 8, 4′-Acetamido-5-(4-(4-(trifluoromethyl)phenyl)-1H-1,2,3-triazol-1-yl)-[1,1′-biphenyl]-3-carboxylic acid]: the half-maximal inhibitory concentration (IC50) was 0.811 ± 0.095 µM.
`O=C(O)c1cc(-c2ccc(-c3cc(CCO)on3)cc2)cc(-n2cc(-c3ccc(C(F)(F)F)cc3)nn2)c1` [Compound 30, 4′-(5-(2-Hydroxyethyl)isoxazol-3-yl)-5-(4-(4-(trifluoromethyl)phenyl)-1H-1,2,3-triazol-1-yl)-[1,1′-biphenyl]-3-carboxylic acid]: the IC50 was 0.389 ± 0.042 µM.
Take `CC(C)(C)OC(=O)NCC1(c2ccc(-c3cc(C(=O)O)cc(-n4cc(-c5ccc(C(F)(F)F)cc5)nn4)c3)cc2)CC1` [Compound 24, 4′-(1-(((tert-Butoxycarbonyl)amino)methyl)cyclopropyl)-5-(4-(4-(trifluoromethyl)phenyl)-1H-1,2,3-triazol-1-yl)-[1,1′-biphenyl]-3-carboxylic acid]: the 50% inhibitory concentration (IC50) worked out at 18.8 ± 2 µM.
Still for that read-out and setting: with `N#CCCc1ccc(-c2cc(C(=O)O)cc(-n3cc(-c4ccc(C(F)(F)F)cc4)nn3)c2)cc1` [Compound 17, 4′-(2-Cyanoethyl)-5-(4-(4-(trifluoromethyl)phenyl)-1H-1,2,3-triazol-1-yl)-[1,1′-biphenyl]-3-carboxylic acid] the figure was 17.8 ± 2.9 µM.

Staying with this experiment, now noted: Table 2; whole hP2Y14R-CHO cells, 20 nM fluorescent antagonist 3, mean+SEM, n = 3-6; read-out: IC50.
As for `O=C(O)c1cc(-c2ccc([C@H]3C[C@H]4C[C@@H]3NC4=O)cc2)c2ccc(-c3ccc(C(F)(F)F)cc3)cc2c1` [Compound 122, 4-(4-((1S,4S,6R)-3-Oxo-2-azabicyclo[2.2.1]heptan-6-yl)phenyl)-7-(4-(trifluoromethyl)phenyl)-2-naphthoic acid], the IC50 is 0.0586 ± 0.0129 µM.
Turning to `CS(=O)(=O)N1C[C@H]2C[C@@H]1C[C@@H]2c1ccc(-c2cc(C(=O)O)cc3cc(-c4ccc(C(F)(F)F)cc4)ccc23)cc1` [Compound 123], the IC50 was determined as 0.497 ± 0.092 µM.
Take `O=C(O)c1cc(-c2ccc(C3CCN(CCCCc4cn([C@@H]5O[C@H](CO)[C@@H](O)[C@H](O)[C@H]5O)nn4)CC3)cc2)c2ccc(-c3ccc(C(F)(F)F)cc3)cc2c1` [Compound 508, 7-(4-(Trifluoromethyl)phenyl)-4-(4-(1-(4-(1-((2R,3R,4S,5S,6R)-3,4,5-trihydroxy-6-(hydroxymethyl)tetrahydro-2H-pyran-2-yl)-1H-1,2,3-triazol-4-yl)butyl)piperidin-4-yl)phenyl)-2-naphthoic acid]: the IC50 is 0.0157 ± 0.0025 µM.

The experiment is the same for the next values; noted with them: read-out: IC50.
As for `O=C(O)c1cc(-c2ccc(C3=C[C@H]4CNC[C@@H]4C3)cc2)c2ccc(-c3ccc(C(F)(F)F)cc3)cc2c1` (racemic) [Compound 412, rac-4-(4-((3aR,6aR)-1,2,3,3a,4,6a-Hexahydrocyclopenta[c]pyrrol-5-yl)phenyl)-7-(4-(trifluoromethyl)phenyl)-2-naphthoic acid], the half-inhibitory concentration (IC50) was 0.0166 ± 0.0032 µM.
